Measurements: US11485740B2, “Inhibitors of TRPC6” (Boehringer Ingelheim International GmbH, priority 2018, dated 2022)

The molecules below were run against T1, human TRPC6 (Homo sapiens, UniProt Q9Y210) (assay: High throughput screening assay: Fluo4/AM calcium fluorescence in HEK293/TREx cells expressing human TRPC6, agonist GSK1702934A (single concentration 10 μM and IC50 curves)). Details: antagonist effect against human TRPC6, 7 concentrations 20 μM to 0.027 μM, triplicate.
T1 construct: expressed in transfected cells
T1 sequence (Q9Y210 1-931): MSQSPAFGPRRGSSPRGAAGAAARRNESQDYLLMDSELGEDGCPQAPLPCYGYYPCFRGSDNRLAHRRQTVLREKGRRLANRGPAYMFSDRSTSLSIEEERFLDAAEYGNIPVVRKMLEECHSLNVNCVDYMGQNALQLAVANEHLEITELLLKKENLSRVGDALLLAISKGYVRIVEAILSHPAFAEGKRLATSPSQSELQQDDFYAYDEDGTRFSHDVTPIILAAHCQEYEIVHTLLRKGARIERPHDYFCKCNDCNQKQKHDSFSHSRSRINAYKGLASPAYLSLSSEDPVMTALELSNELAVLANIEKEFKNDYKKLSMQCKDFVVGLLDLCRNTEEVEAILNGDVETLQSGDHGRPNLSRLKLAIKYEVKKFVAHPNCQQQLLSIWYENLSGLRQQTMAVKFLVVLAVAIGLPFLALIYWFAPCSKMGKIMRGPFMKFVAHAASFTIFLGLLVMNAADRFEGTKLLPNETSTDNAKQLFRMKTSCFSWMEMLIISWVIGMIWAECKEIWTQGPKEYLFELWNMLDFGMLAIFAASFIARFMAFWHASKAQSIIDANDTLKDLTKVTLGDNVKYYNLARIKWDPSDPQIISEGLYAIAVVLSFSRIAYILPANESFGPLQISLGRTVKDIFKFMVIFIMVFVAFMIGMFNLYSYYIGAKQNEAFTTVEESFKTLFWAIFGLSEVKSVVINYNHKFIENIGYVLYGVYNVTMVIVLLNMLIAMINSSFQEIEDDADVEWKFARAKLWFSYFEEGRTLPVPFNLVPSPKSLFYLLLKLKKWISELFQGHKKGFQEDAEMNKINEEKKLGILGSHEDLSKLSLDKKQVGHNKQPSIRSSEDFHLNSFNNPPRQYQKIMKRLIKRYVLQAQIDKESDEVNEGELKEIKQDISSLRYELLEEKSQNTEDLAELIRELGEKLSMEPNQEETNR
Type: cell-based
From the text: High Throughput Screening Assay
This screening assay measures human TRPC6 (transient receptor potential cation channel, subfamily C, member 6) ion channel activation via addition either of the commercially available DAG ligand analogue OAG (1-oleoyl-2-acetyl-sn-glycerol) or of the TRPC6 agonist 1-[1-(4,5,6,7,8-pentahydrocyclohepta[2,1-d]thiophen-2-ylcarbonyl)-4-piperidyl]-3-hydrobenzimidazol-2-one (GSK1702934A). The assay utilizes a fluorescent calcium sensor 4-(6-Acetoxymethoxy-2,7-difluoro-3-oxo-9-xanthenyl)-4′-methyl-2,2′-(ethylenedioxy)dianiline-N,N,N′,N′-tetraacetic acid tetrakis(acetoxymethyl) ester (Fluo4/AM) dye from Molecular Devices. Changes (increases) in intracellular calcium concentration as measured by the fluorescent signal increase provide a measurement of channel activity.
The commercially available HEK293/TREx line (Invitrogen) was stably transfected with a human TRPC6 construct and screened by conventional calcium imaging to find clones with human TRPC6 expression following stimulation with 1 μg/ml tetracycline. These cells were maintained in the growth medium recommended by the manufacturer supplemented with 100 μg/ml hygromycin to promote retention of the human TRPC6 construct. After growing to near confluency, cells were plated at a density of ^˜35,000 cells/well in 384 well CellBind plates (Corning) in the presence of 1 μg/ml tetracycline, and allowed to grow for 20-30 hrs. A nearly confluent monolayer resulted. Growth media was removed from the wells and cells were then loaded with […] Fluo4/AM diluted in Ringer's Solution (6.5 g NaCl, 0.42 g KCl, 0.25 g CaCl2) and 0.2 g of sodium bicarbonate; pH 7.4) supplemented with 1% Pluronic F-127 to a final concentration of 0.5 μM and incubated for 60 min, at room temperature. Dye solution was then removed from the cells by inverting plates with a sharp flick, and replaced with 25 μl Ringer's. Following ^˜0.5 hour for recovery from loading, cells were assayed using the Hamamatsu FDSS 6000 system, which permitted illumination at 485 nm. Frames were acquired at a rate of 0.2 Hz. During the assay, the plates were continuously vortexed, with pipette mixing of wells following addition of each reagent. For the screening assay, 26 μl of a diluted compound stock (at 50 μM) was added to each well for 2 minutes following the collection of a short (4 frame) baseline. 13 μl of agonist solution consisting of 125 nM GSK1702934A diluted in high-Ca2+Ringer solution (containing 90 mM Ca2+) was then added to each well, achieving a final concentration of 20 mM Ca2+ and 10 μM test compound. Data was collected for ^˜3 minutes following addition of high Ca2+Ringer. The fluorescent intensity observed at a particular timepoint for each well was divided by the initial fluorescent intensity for that well and the overall response was determined by averaging the resulting fluorescent ratio of the last 4 frames acquired during the experiment excepting the final frame. Negative and Positive controls were included on each plate. Negative controls wells consisted of HEK293/TREx TRPC6 cells exposed to assay buffer and agonist solution, but no test compound. Positive control consisted of wells consisted of HEK293/TREx TRPC6 cells exposed to 25 μM 3-[(2-chlorophenoxy)methyl]phenyl piperidyl ketone (Chembridge) diluted in Ringer's solution and agonist solution. These controls defined zero percent and 100 percent block respectively, and intensity of each well was normalized to these values.
Compounds were tested in triplicate at all concentrations. Standard software was used to fit IC50 curves.

Structure (SMILES)	IC50 [nM]
COc1cc(C(=O)N2CCC(c3ccc(N)nn3)CC2)ncc1-c1ccc(OC2CCC2)nc1 [Compound 49, [4-(6-Amino-pyridazin-3-yl)-piperidin-1-yl]-(6′-cyclobutoxy-4-methoxy-[3,3′]bipyridinyl-6-yl)-methanone]	140
COc1cc(C(=O)N2CCC(c3ccc(N)nn3)CC2)ncc1-c1ccc(OCC2CC2)nc1 [Compound 50, [4-(6-Amino-pyridazin-3-yl)-piperidin-1-yl]-(6′-cyclopropylmethoxy-4-methoxy-[3,3′]bipyridinyl-6-yl)-methanone]	190
COc1cc(C(=O)N2CCC(c3ccc(N)nn3)CC2)ncc1-c1ccc(C)c(C#N)c1 [Compound 51, 5-{6-[4-(6-Amino-pyridazin-3-yl)-piperidine-1-carbonyl]-4-methoxy-pyridin-3-yl}-2-methyl-benzonitrile]	900
COc1cc(C(=O)N2CCC(c3ccc(N)nn3)CC2)ncc1-c1cccc(OCC(C)C)c1 [Compound 52, [4-(6-Amino-pyridazin-3-yl)-piperidin-1-yl]-[5-(3-isobutoxy-phenyl)-4-methoxy-pyridin-2-yl]-methanone]	240
COc1cc(C(=O)N2CCC(c3ccc(N)nn3)CC2)ncc1-c1cnc(OC(C)C)nc1 [Compound 53, [4-(6-Amino-pyridazin-3-yl)-piperidin-1-yl]-[5-(2-isopropoxy-pyrimidin-5-yl)-4-methoxy-pyridin-2-yl]-methanone]	3600
COc1cc(C(=O)N2CCC(c3ccc(N)nn3)CC2)ncc1-c1cnc(OCC(F)(F)F)nc1 [Compound 54]	830
COc1cc(C(=O)N2CCC(c3ccc(N)nn3)CC2)ccc1-c1ccc(C(F)(F)F)cc1 [Compound 55, [4-(6-Amino-pyridazin-3-yl)-piperidin-1-yl]-(2-methoxy-4′-trifluoromethyl-biphenyl-4-yl)-methanone]	430
COc1cc(C(=O)N2CCC(c3ccc(N)nn3)CC2)ccc1-c1ccc(OC(F)(F)F)cc1 [Compound 56, [4-(6-Amino-pyridazin-3-yl)-piperidin-1-yl]-(2-methoxy-4′-trifluoromethoxy-biphenyl-4-yl)-methanone]	910
COc1cc(C(=O)N2CCC(c3ccc(N)nn3)CC2)ccc1-c1ccc(OC(C)C)cc1 [Compound 57, [4-(6-Amino-pyridazin-3-yl)-piperidin-1-yl]-(4′-isopropoxy-2-methoxy-biphenyl-4-yl)-methanone]	320
COc1cc(C(=O)N2CCC(c3ccc(N)nn3)CC2)ccc1-c1ccc(OCC(F)(F)F)cc1 [Compound 58, [4-(6-Amino-pyridazin-3-yl)-piperidin-l-yl]-[2-methoxy-4′-(2,2,2-trifluoro-ethoxy)-biphenyl-4-yl]-methanone]	81
COc1cc(C(=O)N2CCC(c3ccc(N)nn3)CC2)ccc1-c1ccc(C(F)(F)F)nc1 [Compound 59, [4-(6-Amino-pyridazin-3-yl)-piperidin-1-yl]-[3-methoxy-4-(6-trifluoromethyl-pyridin-3-yl)-phenyl]-methanone]	640
COc1cc(C(=O)N2CCC(c3ccc(N)nn3)CC2)ccc1-c1ccccc1 [Compound 60, [4-(6-Amino-pyridazin-3-yl)-piperidin-1-yl]-(2-methoxy-biphenyl-4-yl)-methanone]	930
COc1cc(C(=O)N2CCC(c3ccc(N)nn3)CC2)ccc1-c1ccnc(C(F)(F)F)c1 [Compound 61, [4-(6-Amino-pyridazin-3-yl)-piperidin-1-yl]-[3-methoxy-4-(2-trifluoromethyl-pyridin-4-yl)-phenyl]-methanone]	4100
COc1cc(C(=O)N2CCC(c3ccc(N)nn3)CC2)ccc1-c1cnc(OC(C)C)nc1 [Compound 62, [4-(6-Amino-pyridazin-3-yl)-piperidin-1-yl]-[4-(2-isopropoxy-pyrimidin-5-yl)-3-methoxy-phenyl]-methanone]	1100
Cc1cc(C(=O)N2CCC(c3ccc(N)nn3)CC2)ccc1-c1ccc(C(F)(F)F)cc1 [Compound 63, [4-(6-Amino-pyridazin-3-yl)-piperidin-1-yl]-(2-methyl-4′-trifluoromethyl-biphenyl-4-yl)-methanone]	4700
COc1nc(C(=O)N2CCC(c3ccc(N)nn3)CC2)ccc1-c1ccc(C(F)(F)F)cc1 [Compound 64, [4-(6-Amino-pyridazin-3-yl)-piperidin-1-yl]-[6-methoxy-5-(4-trifluoromethyl-phenyl)-pyridin-2-yl]-methanone]	1300
COc1cc(C(=O)N2CCC(c3ccc(N)nn3)CC2)cnc1-c1ccc(C(F)(F)F)cc1 [Compound 65, [4-(6-Amino-pyridazin-3-yl)-piperidin-1-yl]-[5-methoxy-6-(4-trifluoromethyl-phenyl)-pyridin-3-yl]-methanone]	860
COc1cc(-c2ccc(C(F)(F)F)cc2)ccc1C(=O)N1CCC(c2ccc(N)nn2)CC1 [Compound 66, [4-(6-Amino-pyridazin-3-yl)-piperidin-1-yl]-(3-methoxy-4′-trifluoromethyl-biphenyl-4-yl)-methanone]	520
COc1cc(C(=O)N2CCN(c3ccc(N)nc3)CC2)ncc1-c1ccc(C(F)(F)F)nc1 [Compound 67, [4-(6-Amino-pyridin-3-yl)-piperazin-1-yl]-(4-methoxy-6′-trifluoromethyl-[3,3′]bipyridinyl-6-yl)-methanone]	210
COc1cc(C(=O)N2CCN(c3ccc(N)nc3)CC2)ncc1-c1ccccc1 [Compound 68, 5-[4-(4-Methoxy-5-phenylpyridine-2-carbonyl)piperazin-1-yl]pyridin-2-amine]	39
Cc1cc(-c2ccc(C(F)(F)F)cc2)ccc1C(=O)N1CCC(c2ccc(N)nn2)CC1 [Compound 69, [4-(6-Amino-pyridazin-3-yl)-piperidin-1-yl]-(3-methyl-4′-trifluoromethyl-biphenyl-4-yl)-methanone]	360
CCc1cc(C(=O)N2CCC(c3ccc(N)nn3)CC2)ccc1-c1ccc(C(F)(F)F)cc1 [Compound 70, [4-(6-Amino-pyridazin-3-yl)-piperidin-1-yl]-(2-ethyl-4′-trifluoromethyl-biphenyl-4-yl)-methanone]	1400
COc1cc(C(=O)N2CCC(c3ccc(N)nc3)CC2)ncc1-c1ccccc1 [Compound 71, 5-[1-(4-Methoxy-5-phenylpyridine-2-carbonyl)piperidin-4-yl]pyridin-2-amine]	27
COc1cc(C(=O)N2CCC(c3ccc(N)nc3)CC2)ncc1-c1ccc(F)cc1 [Compound 72, (6-Amino-3′,4′,5′,6′-tetrahydro-2′H-[3,4′]bipyridinyl-1′-yl)-[5-(4-fluoro-phenyl)-4-methoxy-pyridin-2-yl]methanone]	27
